Data reported in patent publication US10597388B2, “Pyridazinone herbicides” (FMC CORPORATION, priority 2014, dated 2020).

How the values were obtained:
Type in all cases: in vivo
[1] = system: morningglory (Ipomoea coccinea); experiment: Test C greenhouse herbicide test, pre- and postemergence
Summary of the method: (§1)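 Percent-control ratings (0 none, 100 complete) came from visual comparison with controls held alongside in the greenhouse for 13–15 d. Treatments covered soil application at sowing and foliar application to young plants 2–18 cm tall.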

[2] = system: blackgrass (Alopecurus myosuroides); experiment: as above
Summary of the method: as §1

[3] = system: crabgrass, large (large crabgrass, Digitaria sanguinalis); experiment: as above
Summary of the method: as §1

[4] = system: nutsedge, yellow (yellow nutsedge, Cyperus esculentus); experiment: as above
Summary of the method: as §1

[5] = system: oilseed rape (Brassica napus); experiment: as above
Summary of the method: as §1

[6] = system: foxtail, giant (giant foxtail, Setaria faberii); experiment: as above; details: Postemergence
Summary of the method: as §1

[7] = system: barnyardgrass (Echinochloa crus-galli); experiment: as above
Summary of the method: as §1

[8] = system: waterhemp (common waterhemp, Amaranthus rudis); experiment: as above
Summary of the method: as §1

[9] = system: corn (Zea mays); experiment: as above
Summary of the method: as §1

[10] = system: johnsongrass (Sorghum halepense); experiment: as above
Summary of the method: as §1

[11] = system: pigweed (Amaranthus retroflexus); experiment: as above
Summary of the method: as §1

[12] = system: wheat (winter wheat, Triticum aestivum); experiment: as above
Summary of the method: as §1

[13] = system: velvetleaf (Abutilon theophrasti); experiment: as above
Summary of the method: as §1

[14] = system: lambsquarters (Chenopodium album); experiment: as above
Summary of the method: as §1

[15] = system: oat, wild (wild oat, Avena fatua); experiment: Test C greenhouse herbicide test, postemergence; details: Postemergence
Summary of the method: (§2)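 Test chemicals were applied postemergence to greenhouse plants at the 1- to 4-leaf stage (2–18 cm tall) growing in peat/vermiculite medium. After 13–15 d, injury was rated visually against untreated controls on a 0–100 scale (0 = no effect, 100 = complete control).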

[16] = system: kochia (Kochia scoparia); experiment: Test C greenhouse herbicide test, postemergence; details: Postemergence
Summary of the method: as §2

[17] = Postemergence, 31 g ai/ha, scale 0 to 100 (0 no effect, 100 complete control)
[18] = Postemergence, 125 g ai/ha, scale 0 to 100, 0 is no effect, 100 is complete control
[19] = Postemergence, 250 g ai/ha, scale 0 to 100, 0 no effect, 100 complete control, 13 to 15 d
[20] = Preemergence, 31 g ai/ha, scale 0 to 100, 0 is no effect, 100 is complete control
[21] = Preemergence, 62 g ai/ha, scale 0 to 100, 0 is no effect, 100 is complete control
[22] = Preemergence, 125 g ai/ha, scale 0 to 100, 0 is no effect, 100 is complete control
[23] = Preemergence, 250 g ai/ha, scale 0 to 100 (0 no effect, 100 complete control)
[24] = postemergence, 62 g ai/ha, scale 0 to 100, 0 no effect, 100 complete control
[25] = 31 g ai/ha, scale 0 to 100 (0 no effect, 100 complete control)
[26] = 125 g ai/ha, scale 0 to 100, 0 is no effect, 100 is complete control
[27] = 250 g ai/ha, scale 0 to 100, 0 no effect, 100 complete control, 13 to 15 d

## Cc1sc2ccc(Cl)cc2c1-c1c(OS(C)(=O)=O)c(Cl)nn(C)c1=O [Compound 114]
[1]; [17]
  Plant response rating, Morningglory: 95
[1]; [18]
  Plant response rating, Morningglory: 100
[1]; [19]
  Plant response rating, Morningglory: 100
[1]; [20]
  Plant response rating, Morningglory: 25
[1]; [21]
  Plant response rating, Morningglory: 55
[1]; [22]
  Plant response rating, Morningglory: 75
[1]; [23]
  Morningglory plant response rating: 90
[2]; [17]
  Plant response rating, Blackgrass: 0
[2]; [18]
  Plant response rating, Blackgrass: 5
[2]; [19]
  Plant response rating, Blackgrass: 15
[2]; [20]
  Plant response rating, Blackgrass: 0
[2]; [21]
  Plant response rating, Blackgrass: 5
[2]; [22]
  Plant response rating, Blackgrass: 5
[2]; [23]
  Blackgrass plant response rating: 10
[2]; [24]
  Blackgrass plant response rating: 0
[3]; [17]
  Plant response rating, Crabgrass, Large: 10
[3]; [18]
  Plant response rating, Crabgrass, Large: 20
[3]; [19]
  Plant response rating, Crabgrass, Large: 25
[3]; [20]
  Plant response rating, Crabgrass, Large: 0
[3]; [21]
  Plant response rating, Crabgrass, Large: 5
[3]; [22]
  Plant response rating, Crabgrass, Large: 75
[3]; [23]
  Crabgrass, Large plant response rating: 80
[3]; [24]
  Crabgrass, Large plant response rating: 20
[4]; [17]
  Plant response rating, Nutsedge, Yellow: 10
[4]; [18]
  Plant response rating, Nutsedge, Yellow: 25
[4]; [19]
  Plant response rating, Nutsedge, Yellow: 35
[4]; [20]
  Plant response rating, Nutsedge, Yellow: 10
[4]; [21]
  Plant response rating, Nutsedge, Yellow: 40
[4]; [22]
  Plant response rating, Nutsedge, Yellow: 65
[4]; [23]
  Nutsedge, Yellow plant response rating: 95
[5]; [17]
  Plant response rating, Oilseed Rape: 15
[5]; [18]
  Plant response rating, Oilseed Rape: 40
[5]; [19]
  Plant response rating, Oilseed Rape: 80
[5]; [20]
  Plant response rating, Oilseed Rape: 30
[5]; [21]
  Plant response rating, Oilseed Rape: 98
[5]; [22]
  Plant response rating, Oilseed Rape: 100
[5]; [23]
  Oilseed Rape plant response rating: 100
[6]; [25]
  Plant response rating, Foxtail, Giant: 10
[6]; [26]
  Plant response rating, Foxtail, Giant: 50
[6]; [27]
  Plant response rating, Foxtail, Giant: 85
[7]; [17]
  Plant response rating, Barnyardgrass: 30
[7]; [18]
  Plant response rating, Barnyardgrass: 40
[7]; [19]
  Plant response rating, Barnyardgrass: 40
[7]; [20]
  Plant response rating, Barnyardgrass: 5
[7]; [21]
  Plant response rating, Barnyardgrass: 10
[7]; [22]
  Plant response rating, Barnyardgrass: 60
[7]; [23]
  Barnyardgrass plant response rating: 95
[7]; [24]
  Barnyardgrass plant response rating: 35
[8]; [17]
  Plant response rating, Waterhemp: 25
[8]; [18]
  Plant response rating, Waterhemp: 55
[8]; [19]
  Plant response rating, Waterhemp: 45
[8]; [20]
  Plant response rating, Waterhemp: 50
[8]; [21]
  Plant response rating, Waterhemp: 75
[8]; [22]
  Plant response rating, Waterhemp: 65
[8]; [23]
  Waterhemp plant response rating: 80
[9]; [17]
  Plant response rating, Corn: 0
[9]; [18]
  Plant response rating, Corn: 0
[9]; [19]
  Plant response rating, Corn: 0
[9]; [20]
  Plant response rating, Corn: 0
[9]; [21]
  Plant response rating, Corn: 5
[9]; [22]
  Plant response rating, Corn: 5
[9]; [23]
  Corn plant response rating: 5
[9]; [24]
  Corn plant response rating: 0
[10]; [17]
  Plant response rating, Johnsongrass: 5
[10]; [18]
  Plant response rating, Johnsongrass: 5
[10]; [19]
  Plant response rating, Johnsongrass: 15
[10]; [20]
  Plant response rating, Johnsongrass: 0
[10]; [21]
  Plant response rating, Johnsongrass: 0
[10]; [22]
  Plant response rating, Johnsongrass: 0
[10]; [23]
  Johnsongrass plant response rating: 0
[11]; [17]
  Plant response rating, Pigweed: 80
[11]; [18]
  Plant response rating, Pigweed: 95
[11]; [19]
  Plant response rating, Pigweed: 95
[11]; [20]
  Plant response rating, Pigweed: 98
[11]; [21]
  Plant response rating, Pigweed: 90
[11]; [22]
  Plant response rating, Pigweed: 100
[11]; [23]
  Pigweed plant response rating: 100
[12]; [17]
  Plant response rating, Wheat: 0
[12]; [18]
  Plant response rating, Wheat: 5
[12]; [19]
  Plant response rating, Wheat: 15
[12]; [20]
  Plant response rating, Wheat: 0
[12]; [21]
  Plant response rating, Wheat: 0
[12]; [22]
  Plant response rating, Wheat: 5
[12]; [23]
  Wheat plant response rating: 35
[13]; [17]
  Plant response rating, Velvetleaf: 25
[13]; [18]
  Plant response rating, Velvetleaf: 55
[13]; [19]
  Plant response rating, Velvetleaf: 85
[13]; [20]
  Plant response rating, Velvetleaf: 45
[13]; [21]
  Plant response rating, Velvetleaf: 60
[13]; [22]
  Plant response rating, Velvetleaf: 85
[13]; [23]
  Velvetleaf plant response rating: 100
[14]; [17]
  Plant response rating, Lambsquarters: 95
[14]; [18]
  Plant response rating, Lambsquarters: 100
[14]; [19]
  Plant response rating, Lambsquarters: 100
[14]; [20]
  Plant response rating, Lambsquarters: 90
[14]; [21]
  Plant response rating, Lambsquarters: 98
[14]; [22]
  Plant response rating, Lambsquarters: 90
[14]; [23]
  Lambsquarters plant response rating: 95
[15]; [25]
  Plant response rating, Oat, Wild: 40
[15]; [26]
  Plant response rating, Oat, Wild: 65
[15]; [27]
  Plant response rating, Oat, Wild: 85
[16]; [25]
  Plant response rating, Kochia: 30
[16]; [26]
  Plant response rating, Kochia: 90
[16]; [27]
  Plant response rating, Kochia: 95
